Source: patent US4110472A, “Derivatives of 1-(disubstituted phenoxy)-3-amino-2-hydroxypropanes” (Bayer Aktiengesellschaft, priority 1975, dated 1978)
Where a name gives a salt, the structure may show the parent alone.

Columns and labels:
in vivo = conditions: mouse
cerebral blood flow [1] = test: Increase in the cerebral blood flow in cats (133 xenon clearance); conditions: for increase the cerebral blood flow (in words) / activity on cerebral blood flow (in words): cats; for increase the cerebral blood flow (in words): Tables 1 and 2, FIGS. 6A, 6B and 7; for action on cerebral blood flow at lower doses vs comparison substances: intravenous administration; for activity on cerebral blood flow (in words): peroral
Source text: (§1) Increase in the cerebral blood flow in cats and dogs Cats (1.8-3.0 kg) and dogs (18-25 kg) of both sexes are rendered analgetic with fentanyl and curarized.

[2] = system: 7-minute complete cerebral ischaemia; test: Restricted circulation and mortality after a transient total cerebral ischaemia (experimental apoplexy); type: in vivo
Source text: Restricted circulation and mortality after a transient total cerebral ischaemia ("experimental apoplexy")
A 7-minute complete cerebral ischaemia is caused in curarized cats by inflating a collar placed around the neck.

[3] = system: amnesia induced by electric shock; test: Protective action against amnesia induced by electric shock in male mice; type: in vivo; conditions: vs propanolol and vincamine; 3 administrations at 24 h intervals, FIGS. 1-5
Source text: 1. Protective action against amnesia in male mice A modification of the method of Taber and Banuazizi (Psychopharmacol. 9, 382-91, 1966) was employed. Mice are taught to remain seated in a small compartment of a test cage and not to move into the larger compartment in which an electric shock to the foot were previously received. If a convulsive electric shock is applied to a mouse after it has been so taught, it develops amnesia and forgets the previous experience (the shock to its foot in the larger compartment),and moves from the smaller compartment into the larger compartment. By pre-treating the animals with a test substance, it is possible to determine whether these substances have any protective action against the amnesia produced. Each test substance is administered to the particular animal 3 times at intervals of 24 hours, the last administration being 1 hour before the first test. Two groups are formed for each test; a control group with amnesia and a pre-treated group. For each test group, the average value of the times which have elapsed befoe the barrier is crossed on the 2nd day is calculated. This time is taken as a criterion for the learning capacity.

cerebral blood flow [4] = test: Increase in the cerebral blood flow in dogs (133 xenon clearance); type: in vivo; conditions: FIGS. 6A, 6B and 7
Source text: as §1

| Compound | LD50 (in vivo; iv) | LD50 (in vivo; po) | increase the cerebral blood flow (in words) (cerebral blood flow [1]) | action on cerebral blood flow at lower doses vs comparison substances (cerebral blood flow [1]) | activity on cerebral blood flow (in words) (cerebral blood flow [1]; at 50 and 25 mg/kg) | restriction in the cerebral blood flow after a 7-minute cerebral ischaemia ([2]; cats, pretreated 50 mg/kg perorally) | mortality after 7-minute cerebral ischaemia (cats died) ([2]; pretreated 50 mg/kg perorally, 94% of controls died within 48 hours, significant) | protective action against amnesia induced by electric shock [3] | increase the cerebral blood flow (in words) (cerebral blood flow [4]) | LD50 (in vivo; iv, mice, intravenously) | LD50 (in vivo; po, mice, orally) | activity on cerebral blood flow (in words) (cerebral blood flow [1]; 50 mg/kg) | activity in the experimental apoplexy test (in words) ([2]; cats) |
| --- | --- | --- | --- | --- | --- | --- | --- | --- | --- | --- | --- | --- | --- |
| C/C=C/c1ccc(OCC)c(OCC(O)CNC(c2ccccc2)c2ccccc2)c1 (stereo not drawn) [Compound A, 1-(2-ethoxy-5-trans-propenylphenoxy)-2-hydroxy-3-diphenylmethylaminopropane hydrochloride] | 80 mg/kg | > 2000 mg/kg | significantly increase | stronger than that of the comparison substances | distinct action | no restriction | 33% | considerably more effective | significantly increase |  |  |  |  |
| C=CCc1ccc(OCC(O)CNC(c2ccccc2)c2ccccc2)c(OC)c1.Cl (centres unmarked) [Compound B, 1-(2-methoxy-4-allylphenoxy)-2-hydroxy-3-diphenylmethylaminopropane hydrochloride] |  |  | significantly increase | stronger than that of the comparison substances | distinct action |  |  | considerably more effective | significantly increase | 43 mg/kg | 450 mg/kg |  |  |
| C/C=C/c1ccc(OCC)c(OCC(O)CNC2c3ccccc3-c3ccccc32)c1 (stereo not drawn) [Compound C, 1-(2-ethoxy-5-trans-propenylphenoxy)-2-hydroxy-3-(9-fluorenylamino)-propane] |  |  | significantly increase | stronger than that of the comparison substances | distinct action |  |  |  | significantly increase | 85 mg/kg | > 2000 mg/kg |  |  |
| OC(CNC(c1ccccc1)c1ccccc1)COc1ccc(Cl)c(Cl)c1 (centres unmarked) [Compound D, 1-(3,4-dichlorophenoxy)-2-hydroxy-3-diphenylmethylaminopropane] |  |  | significantly increase | stronger than that of the comparison substances | distinct action |  |  | considerably more effective | significantly increase | 76 mg/kg | > 2000 mg/kg |  |  |
| CN(C)CCCOC1(Cc2ccccc2)CCCCCC1 [bencyclan, reference compound] |  |  |  |  |  |  |  |  |  | 33 mg/kg | > 2000 mg/kg | inactive |  |
| CC[C@]12CCCN3CCc4c(n(c5ccccc45)[C@@](O)(C(=O)OC)C1)[C@@H]32 [vincamine, reference compound] |  |  |  |  |  |  |  |  |  | 95 mg/kg | 460 mg/kg |  | inactive |
